Test results: patent US20100137305A1, “AMINOPYRIMIDINES USEFUL AS KINASE INHIBITORS” (VERTEX PHARMACEUTICALS INCORPORATED, priority 2008, published 2010)
Like-named read-outs stand apart in the source and are kept apart here.

Key:
Aurora-2 (Aurora A) = molecular target: T1, Aurora-2 (Aurora A) (Homo sapiens, UniProt O14965); assay: Aurora-2 (Aurora A) Inhibition Assay, coupled enzyme assay; type: biochemical; details: 400 μM ATP, 30° C.; read-out: Aurora A kinase activity Ki
T1 sequence (O14965 1-403): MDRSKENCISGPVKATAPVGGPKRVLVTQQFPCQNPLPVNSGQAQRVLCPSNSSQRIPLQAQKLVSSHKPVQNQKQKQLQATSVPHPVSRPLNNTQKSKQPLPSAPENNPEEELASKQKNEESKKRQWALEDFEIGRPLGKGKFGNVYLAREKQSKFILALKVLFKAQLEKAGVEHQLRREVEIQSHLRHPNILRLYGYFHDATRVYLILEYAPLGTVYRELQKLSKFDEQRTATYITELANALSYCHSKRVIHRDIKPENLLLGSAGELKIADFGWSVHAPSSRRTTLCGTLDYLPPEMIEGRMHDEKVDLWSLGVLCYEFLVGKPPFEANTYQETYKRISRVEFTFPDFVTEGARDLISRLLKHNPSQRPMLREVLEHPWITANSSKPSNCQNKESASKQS
Procedure: Compounds were screened for their ability to inhibit Aurora-2 using a standard coupled enzyme assay (Fox et al., Protein Sci., (1998) 7, 2249). Assays were carried out in a mixture of 100 mM Hepes (pH7.5), 10 mM MgCl2, 1 mM DTT, 25 mM NaCl, 2.5 mM phosphoenolpyruvate, 300 μM NADH, 30 μg/ml pyruvate kinase and 10 μg/ml lactate dehydrogenase. Final substrate concentrations in the assay were 400 μM ATP (Sigma Chemicals) and 570 μM peptide (Kemptide, American Peptide, Sunnyvale, Calif.). Assays were carried out at 30° C. and in the presence of 40 nM Aurora-2.
An assay stock buffer solution was prepared containing all of the reagents listed above, with the exception of Aurora-2 and the test compound of interest. 55 μl of the stock solution was placed in a 96 well plate followed by addition of 2 μl of DMSO stock containing serial dilutions of the test compound (typically starting from a final concentration of 7.5 μM). The plate was preincubated for 10 minutes at 30° C. and the reaction initiated by addition of 10 μl of Aurora-2. Initial reaction rates were determined with a Molecular Devices SpectraMax Plus plate reader over a 10 minute time course. IC50 and Ki data were calculated from non-linear regression analysis using the Prism software package (GraphPad Prism version 3.0cx for Macintosh, GraphPad Software, San Diego Calif., USA).

Colo205 cells = assay: Analysis of Cell Proliferation, 3H thymidine incorporation; type: cell-based; details: Homo sapiens
Procedure: Compounds were screened for their ability to inhibit cell proliferation using Colo205 cells obtained from ECACC and using the assay shown below.
Colo205 cells were seeded in 96 well plates and serially diluted compound was added to the wells in duplicate. Control groups included untreated cells, the compound diluent (0.1% DMSO alone) and culture medium without cells. The cells were then incubated for 72 or 96 hrs at 37C in an atmosphere of 5% CO2/95% humidity.
To measure proliferation, 3 h prior to the end of the experiment 0.5 μCi of 3H thymidine was added to each well. Cells were then harvested and the incorporated radioactivity counted on a Wallac microplate beta-counter. Dose response curves were calculated using either Prism 3.0 (GraphPad) or SoftMax Pro 4.3.1 LS (Molecular Devices) software.

[1] = COLO 205, 96 h, 96 hours, read-out: IC50 cell proliferation after 96 hours

Row | Ki (Aurora-2 (Aurora A)) | IC50 (Colo205 cells; [1]) | IC50 (Colo205 cells; COLO 205, 72 h, 72 hours, read-out: IC50 cell proliferation after 72 hours) | SMILES
1 | ≤ 10 nM | – | – | CCC(=O)Nc1ccc(Sc2nc(Nc3cc(C)n[nH]3)cc(N3CCC(O)(CC(C)(C)C)C3)n2)cc1 (stereo not shown) [Compound I-2]
2 | ≤ 10 nM | 50 to 200 nM | – | CCC(=O)Nc1ccc(Sc2nc(Nc3cc(C)n[nH]3)cc(N3CCC(O)(C(C)(C)C)C3)n2)cc1 (stereo not shown) [Compound I-10]
3 | 10 to 50 nM | 50 to 200 nM | – | Cc1cnc(Nc2cc(N3CCC[C@@H](N(C)C)C3)nc(Sc3ccc(NC(=O)C4CC4)cc3)n2)s1 [Compound I-13]
4 | ≤ 10 nM | ≤ 50 nM | – | CCC(=O)Nc1ccc(Sc2nc(Nc3cc(C)n[nH]3)cc(N3CC[C@H](N(C)CC)C3)n2)cc1 [Compound I-50]
5 | 10 to 50 nM | 50 to 200 nM | – | Cc1cnc(Nc2cc(N3CCC[C@H](N(C)C)C3)nc(Sc3ccc(NC(=O)C4CC4)cc3)n2)s1 [Compound I-8]
6 | ≤ 10 nM | ≤ 50 nM | – | Cc1cnc(Nc2cc(N3CC[C@@H](N4CCCC4)C3)nc(Sc3ccc(NC(=O)C4CC4)cc3)n2)s1 [Compound I-37]
7 | ≤ 10 nM | 50 to 200 nM | – | CN[C@H]1CCCN(c2cc(Nc3ncc(C)s3)nc(Sc3ccc(NC(=O)C4CC4)cc3)n2)C1 [Compound I-25]
8 | 10 to 50 nM | – | – | CCC(=O)Nc1ccc(Sc2nc(Nc3cc(C)n[nH]3)cc(N3CC[C@@H](NC(C)C)C3)n2)cc1 [Compound I-1]
9 | ≤ 10 nM | – | 25 to 125 nM | Cc1cc(Nc2cc(N3CCC(N4CCCC4)CC3)nc(Sc3ccc(NC(=O)CC4CC4)cc3)n2)n[nH]1 [Compound I-83]
10 | ≤ 10 nM | – | – | CCC(=O)Nc1ccc(Sc2nc(Nc3cc(C)n[nH]3)cc(N3CCC(N4CCCC4(C)C)C3)n2)cc1 (stereo not shown) [Compound I-3]
11 | ≤ 10 nM | ≤ 50 nM | – | CN[C@@H]1CCN(c2cc(Nc3ncc(C)s3)nc(Sc3ccc(NC(=O)C4CC4)cc3)n2)C1 [Compound I-36]
12 | ≤ 10 nM | ≤ 50 nM | – | CCC(=O)Nc1ccc(Sc2nc(Nc3cc(C)n[nH]3)cc(N3CCC(N4CCCC4)C3)n2)cc1 (stereo not shown) [Compound I-48]
13 | ≤ 10 nM | 50 to 200 nM | – | Cc1cnc(Nc2cc(N3CC[C@H](N(C)C)C3)nc(Sc3ccc(NC(=O)C4CC4)cc3)n2)s1 [Compound I-30]
14 | ≤ 10 nM | 50 to 200 nM | – | CCC(=O)Nc1ccc(Sc2nc(Nc3cc(C)n[nH]3)cc(N3CC4CCCNC4C3)n2)cc1 (stereo not shown) [Compound I-19]
15 | ≤ 10 nM | 50 to 200 nM | – | CCC(=O)Nc1ccc(Sc2nc(Nc3cc(C)n[nH]3)cc(N3CCC(C)(N4CCCC4)CC3)n2)cc1 [Compound I-34]
16 | ≤ 10 nM | 50 to 200 nM | – | CCC(=O)Nc1ccc(Sc2nc(Nc3cc(C)n[nH]3)cc(N3CCC(C(C)(C)C)CC3)n2)cc1 [Compound I-23]
17 | 10 to 50 nM | 50 to 200 nM | – | CCC(=O)Nc1ccc(Sc2nc(Nc3cc(C)[nH]n3)cc(N3CC[C@H](NC(C)C)C3)n2)cc1 [Compound I-28]
